Measured values taken from the supplement of paper PMC11061612.

How the values were obtained:
Assay in all cases: Bliss excess, mean over the matrix (fraction); higher = more synergy
[1] = test system: PF-382 (T-Lymphoblastic Leukemia)
How it was run: (§1)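 Cell lines grown in DMEM/F12 or RPMI with 10% FBS were plated in 1536-well plates and held 24 hours at 37°C, 5% CO2 before 72 hours of exposure to two-drug dose matrices, with DMSO typically at 0.2%. CellTiter-Glo 2.0 luminescence gave viability, which was converted to inhibition. Vehicle wells were set to 0 and blank wells to 1. Combination Emax is the second-highest inhibition in the matrix, and Bliss excess is the observed combination effect minus the expected EA + EB − EA·EB, where EA and EB are the single-agent effects.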

[2] = test system: LOU-NH91 (Squamous Cell Lung Carcinoma)
How it was run: as §1

BT-20 (Breast Carcinoma) = test system: BT-20 (Breast Carcinoma)
How it was run: as §1

[3] = test system: TGBC11TKB (Gastric Carcinoma)
How it was run: as §1

[4] = test system: OCUB-M (Breast Carcinoma)
How it was run: as §1

[5] = test system: OVISE (Ovarian Carcinoma)
How it was run: as §1

[6] = test system: OCUM-1 (Gastric Carcinoma)
How it was run: as §1

NH-12 (Neuroblastoma) = test system: NH-12 (Neuroblastoma)
How it was run: as §1

[7] = test system: NCI-H2405 (Lung Adenocarcinoma)
How it was run: as §1

[8] = test system: KLE (Endometrial Carcinoma)
How it was run: as §1

[9] = test system: NCI-H2347 (Lung Adenocarcinoma)
How it was run: as §1

[10] = test system: SCC-9 (Oral Cavity Carcinoma)
How it was run: as §1

NB7 (Neuroblastoma) = test system: NB7 (Neuroblastoma)
How it was run: as §1

[11] = test system: JHH-7 (Hepatocellular Carcinoma)
How it was run: as §1

[12] = test system: DG-75 (Burkitt's Lymphoma)
How it was run: as §1

[13] = test system: HuP-T3 (Pancreatic Carcinoma)
How it was run: as §1

[14] = test system: HSC-2 (Oral Cavity Carcinoma)
How it was run: as §1

RPMI-7951 (Melanoma) = test system: RPMI-7951 (Melanoma)
How it was run: as §1

[15] = test system: EMC-BAC-2 (Non-Small Cell Lung Carcinoma)
How it was run: as §1

[16] = test system: NCI-H513 (Other Solid Carcinomas)
How it was run: as §1

| Structure (SMILES) | Bliss excess [1] | Bliss excess [2] | Bliss excess (BT-20 (Breast Carcinoma)) | Bliss excess [3] | Bliss excess [4] | Bliss excess [5] | Bliss excess [6] | Bliss excess (NH-12 (Neuroblastoma)) | Bliss excess [7] | Bliss excess [8] | Bliss excess [9] | Bliss excess [10] | Bliss excess (NB7 (Neuroblastoma)) | Bliss excess [11] | Bliss excess [12] | Bliss excess [13] | Bliss excess [14] | Bliss excess (RPMI-7951 (Melanoma)) | Bliss excess [15] | Bliss excess [16] |
| --- | --- | --- | --- | --- | --- | --- | --- | --- | --- | --- | --- | --- | --- | --- | --- | --- | --- | --- | --- | --- |
| Cc1c2c(nn1C)CSCc1cc(n(C)n1)CSc1cc(c3ccccc3c1)OCCCc1c(C(=O)O)n(C)c3c-2c(Cl)ccc13 [AZD5991] + C[C@@H]1COCCN1C2=NC(=NC(=C2)C3(CC3)[S@](=N)(=O)C)C4=C5C=CNC5=NC=C4 [AZD6738] (first compound max 1 µM, 7x7, partner max 10 µM) | 0.063 | 0.0408 | 0.0977 | -0.0218 | 0.0339 | -0.0118 | -0.0052 | 0.0031 | 0.0105 | -0.0021 | -0.0489 | 0.0134 | 0.028 | 0.0642 | -0.0464 | -0.0053 | -0.0459 | 0.0095 | 0.066 | 0.0278 |
| C=CCn1c(=O)c2cnc(Nc3ccc(N4CCN(C)CC4)cc3)nc2n1-c1cccc(C(C)(C)O)n1 [AZD1775] + C1CN(CCC1(C(=O)N[C@@H](CCO)C2=CC=C(C=C2)Cl)N)C3=NC=NC4=C3C=CN4 [Capivasertib] (first compound max 3 µM, partner max 3 µM) | 0.144 | -0.0301 | -0.0742 | -0.0422 | -0.0436 | -0.101 | -0.0694 | -0.0728 | -0.0891 | -0.0627 | -0.0534 | 0.0038 | -0.0648 | -0.0045 | 0.0215 | -0.0608 | 0.0724 | -0.0274 | 0.0514 | -0.0372 |
| CC1(C)CCC(CN2CCN(c3ccc(C(=O)NS(=O)(=O)c4ccc(NCC5CCOCC5)c([N+](=O)[O-])c4)c(Oc4cnc5[nH]ccc5c4)c3)CC2)=C(c2ccc(Cl)cc2)C1 [Venetoclax] + C[C@@H](Nc1cc(F)cc(F)c1)c1cc(C(=O)N(C)C)cc2c(=O)cc(N3CCOCC3)oc12 [AZD8186] (first compound max 1 µM, 7x7, partner max 3 µM) | 0.0111 | -0.0647 | -0.0229 | -0.0067 | -0.0082 | -0.0296 | -0.0263 | 0.124 | -0.0396 | 0.0002 | -0.0045 | -0.0222 | -0.0235 | -0.0516 | 0.0255 | -0.0275 | -0.0482 | -0.0344 | -0.0393 | -0.0586 |
| Cc1cc2ncnn2cc1Nc1ncc2c(n1)n(C1CCOCC1)c(=O)n2C [AZD7648] + CCN(CCO)CCCOc1ccc2c(Nc3cc(CC(=O)Nc4cccc(F)c4)[nH]n3)ncnc2c1 [AZD2811] (first compound max 10 µM, 7x7, partner max 1 µM) | 0.0137 | 0.0693 | -0.0432 | 0.0666 | -0.0108 | -0.0105 | -0.0093 | -0.001 | -0.015 | -0.0193 | 0.0131 | 0.0414 | 0.0415 | -0.0244 | 0.0393 | 0.0003 | 0.0999 | 0.0312 | 0.0514 | -0.021 |
| Cc1nc(Nc2ncc(C(=O)Nc3c(C)cccc3Cl)s2)cc(N2CCN(CCO)CC2)n1 [Dasatinib] + CC(=O)Nc1cccc(-n2c(=O)n(C3CC3)c(=O)c3c(Nc4ccc(I)cc4F)n(C)c(=O)c(C)c32)c1 [Trametinib] (first compound max 2 µM, 7x7, partner max 1 µM) | 0.198 | -0.0403 | -0.0878 | -0.103 | -0.0384 | 0.0504 | 0.0155 | -0.0102 | 0.0721 | -0.0052 | 0.153 | 0.0784 | 0.0262 | -0.0394 | 0.0387 | 0.0459 | -0.0238 | -0.0745 | -0.0795 | 0.0273 |
| Cc1c2c(nn1C)CSCc1cc(n(C)n1)CSc1cc(c3ccccc3c1)OCCCc1c(C(=O)O)n(C)c3c-2c(Cl)ccc13 [AZD5991] + CN(C)CCCOc1ccc(-c2ccc3ncc4c(c3c2)n(C2CCOCC2)c(=O)n4C)cn1 [AZD0156] (first compound max 1 µM, 7x7, partner max 1 µM) | 0.0109 | 0.01 | 0.0258 | 0.007 | 0.0178 | -0.0007 | -0.016 | -0.0511 | -0.0075 | -0.0504 | -0.0188 | -0.0237 | -0.0178 | -0.0091 | -0.0286 | -0.0479 | -0.0089 | -0.0382 | -0.0313 | -0.004 |
| CC(=O)c1c(C)c2cnc(Nc3ccc(N4CCNCC4)cn3)nc2n(C2CCCC2)c1=O [Palbociclib] + Cn1cnc2c(F)c(Nc3ccc(Br)cc3Cl)c(C(=O)NOCCO)cc21 [Selumetinib] (first compound max 10 µM, 7x7, partner max 10 µM) | 0.043 | -0.0975 | 0.0253 | 0.0327 | -0.0413 | -0.0174 | -0.0321 | 0.0409 | -0.016 | 0.0167 | -0.0362 | 0.0811 | 0.0136 | -0.0039 | 0.028 | -0.014 | 0.0254 | 0.0492 | 0.0049 | -0.035 |
| CN(CCO)CC[C@H](CSc1ccccc1)Nc1ccc(S(=O)(=O)NC(=O)c2ccc(N3CCC([C@@H](O)c4ccccc4-c4ccc(Cl)cc4)CC3)cc2)cc1S(=O)(=O)C(F)(F)F [AZD4320] + Cn1cnc2c(F)c(Nc3ccc(Br)cc3Cl)c(C(=O)NOCCO)cc21 [Selumetinib] (first compound max 1 µM, 7x7, partner max 3 µM) | 0.0409 | 0.0027 | 0.0937 | 0.0843 | 0.0206 | 0.024 | 0.0319 | 0.0593 | 0.0717 | 0.0087 | 0.0288 | 0.005 | 0.0397 | -0.0214 | -0.0512 | -0.0166 | 0.0195 | -0.006 | 0.0022 | 0.0445 |
| CN(CCO)CC[C@H](CSc1ccccc1)Nc1ccc(S(=O)(=O)NC(=O)c2ccc(N3CCC([C@@H](O)c4ccccc4-c4ccc(Cl)cc4)CC3)cc2)cc1S(=O)(=O)C(F)(F)F [AZD4320] + C=CCn1c(=O)c2cnc(Nc3ccc(N4CCN(C)CC4)cc3)nc2n1-c1cccc(C(C)(C)O)n1 [AZD1775] (first compound max 1 µM, partner max 1 µM) | -0.0132 | 0.105 | 0.0557 | 0.0443 | 0.075 | 0.0598 | 0.03 | -0.0149 | -0.0234 | 0.0083 | 0.034 | -0.0054 | 0.0051 | 0.0362 | -0.0232 | -0.0081 | 0.058 | -0.0023 | -0.0078 | 0.0699 |
| COc1nnc2ccc(N3CCC(c4ccc(OCCN5CCN(C)C(=O)[C@H]5C)cc4)CC3)nn12 [AZD5153] + C=CCn1c(=O)c2cnc(Nc3ccc(N4CCN(C)CC4)cc3)nc2n1-c1cccc(C(C)(C)O)n1 [AZD1775] (first compound max 1 µM, partner max 1 µM) | -0.0176 | 0.0216 | -0.0856 | -0.0699 | -0.0224 | -0.0081 | -0.0217 | -0.123 | 0.0195 | -0.0754 | 0.0293 | 0.0175 | -0.0352 | -0.0749 | -0.0437 | -0.0521 | -0.0167 | -0.0223 | -0.0014 | -0.0857 |
| CN(C)CCCOc1ccc(-c2ccc3ncc4c(c3c2)n(C2CCOCC2)c(=O)n4C)cn1 [AZD0156] + CCN(CCO)CCCOc1ccc2c(Nc3cc(CC(=O)Nc4cccc(F)c4)[nH]n3)ncnc2c1 [AZD2811] (first compound max 1 µM, 7x7, partner max 1 µM) | -0.0115 | -0.024 | -0.0276 | 0.0298 | -0.0736 | -0.0314 | 0.032 | -0.0263 | -0.0241 | -0.0232 | -0.0299 | -0.014 | -0.0082 | -0.0296 | 0.057 | -0.0379 | 0.0232 | -0.0152 | -0.0005 | -0.0019 |
| Cn1cnc2c(F)c(Nc3ccc(Br)cc3Cl)c(C(=O)NOCCO)cc21 [Selumetinib] + CC(C)n1c(=O)n(C)c2cnc3cc(F)c(-c4ccc(OCCCN5CCCCC5)nc4)cc3c21 [AZD1390] (first compound max 10 µM, 7x7, partner max 0.3 µM) | -0.0238 | 0.0028 | -0.0189 | -0.0167 | -0.0332 | -0.0339 | -0.0152 | -0.064 | 0.0387 | -0.0057 | -0.0275 | 0.0185 | -0.0326 | -0.0517 | -0.024 | -0.0046 | -0.0212 | -0.0582 | 0.0079 | -0.0769 |
